From PubChem BioAssay AID256 (DTP/NCI, 2004)
Several values for one entry are separate records, joined by “and”; a condition that tells them apart may be missing. Equal entries are not always repeated. Toxic doses and inconclusive results are not listed. Rule for the calls: active = survival T/C of 150% or more; inactive = T/C below 125% in these data.

Tested on: CD2F1 mice, L1210 leukemia ip, survival T/C
Experiment: NCI In Vivo Anticancer Drug Screen. Data for tumor model L1210 Leukemia (intraperitoneal) in CD2F1 (CDF1) mice
Settings: higher = longer survival
Procedure, shortened: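 In this screen, transplantable tumors were grown in mice given either the compound or its vehicle. Results were expressed as the treated measurement relative to the control measurement.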

[1] = endpoint: mean survival time, dose: 25.0 mg/kg/injection, schedule: Q01DX009 (ip), vehicle: other
[2] = endpoint: mean survival time, dose: 100.0 mg/kg/injection, schedule: Q01DX009 (ip), vehicle: saline with Tween-80
[3] = endpoint: mean survival time, dose: 200.0 mg/kg/injection, schedule: Q01DX009 (ip), vehicle: saline with Tween-80
[4] = endpoint: mean survival time, dose: 100.0 mg/kg/injection, schedule: Q04DX002 (ip), vehicle: saline with Tween-80
[5] = endpoint: mean survival time, dose: 100.0 mg/kg/injection, schedule: Q04DX003 (ip), vehicle: saline with Tween-80
[6] = endpoint: mean survival time, dose: 200.0 mg/kg/injection, schedule: Q04DX003 (ip), vehicle: saline with Tween-80
[7] = endpoint: mean survival time, dose: 75.0 mg/kg/injection, schedule: Q01DX001 (ip), vehicle: saline
[8] = endpoint: mean survival time, dose: 400.0 mg/kg/injection, schedule: Q04DX003 (ip), vehicle: saline with Tween-80
[9] = endpoint: mean survival time, dose: 400.0 mg/kg/injection, schedule: Q01DX009 (ip), vehicle: saline with Tween-80
[10] = endpoint: mean survival time, dose: 50.0 mg/kg/injection, schedule: Q01DX009 (ip), vehicle: Klucel (hydroxypropylcellulose) (HPC)
[11] = endpoint: mean survival time, dose: 100.0 mg/kg/injection, schedule: Q01DX009 (ip), vehicle: Klucel (hydroxypropylcellulose) (HPC)
[12] = endpoint: mean survival time, dose: 200.0 mg/kg/injection, schedule: Q01DX009 (ip), vehicle: Klucel (hydroxypropylcellulose) (HPC)
[13] = endpoint: mean survival time, dose: 100.0 mg/kg/injection, schedule: Q04DX003 (ip), vehicle: saline
[14] = endpoint: mean survival time, dose: 200.0 mg/kg/injection, schedule: Q04DX003 (ip), vehicle: saline
[15] = endpoint: mean survival time, dose: 400.0 mg/kg/injection, schedule: Q04DX003 (ip), vehicle: saline

Measured: T/C

CC(=O)C1CCC2C3CC=C4CC(n5c(=O)cc[nH]c5=O)CCC4(C)C3CCC12C (centres undefined)
inactive: endpoint: mean survival time, dose: 12.5 mg/kg/injection, schedule: Q04DX003 (ip), vehicle: Klucel (hydroxypropylcellulose) (HPC) 97 % of control | endpoint: mean survival time, dose: 25.0 mg/kg/injection, schedule: Q04DX003 (ip), vehicle: Klucel (hydroxypropylcellulose) (HPC) 98 % of control | endpoint: mean survival time, dose: 50.0 mg/kg/injection, schedule: Q04DX003 (ip), vehicle: Klucel (hydroxypropylcellulose) (HPC) 101 % of control and 103 % of control | endpoint: mean survival time, dose: 100.0 mg/kg/injection, schedule: Q04DX003 (ip), vehicle: Klucel (hydroxypropylcellulose) (HPC) 92 % of control and 101 % of control | endpoint: mean survival time, dose: 200.0 mg/kg/injection, schedule: Q04DX003 (ip), vehicle: Klucel (hydroxypropylcellulose) (HPC) 95 % of control | endpoint: mean survival time, dose: 400.0 mg/kg/injection, schedule: Q04DX003 (ip), vehicle: Klucel (hydroxypropylcellulose) (HPC) 90 % of control

c1ccc2c(CN3CC3)c[nH]c2c1
inactive: endpoint: mean survival time, dose: 22.0 mg/kg/injection, schedule: Q01DX009 (ip), vehicle: other 101 % of control | [1] 109 % of control | endpoint: mean survival time, dose: 33.0 mg/kg/injection, schedule: Q01DX009 (ip), vehicle: other 103 % of control | [2] 114 % of control | [3] 112 % of control

CCOP(=S)(OCC)N1CC1
inactive: [4] 104 % of control | endpoint: mean survival time, dose: 200.0 mg/kg/injection, schedule: Q04DX002 (ip), vehicle: saline with Tween-80 93 % of control | endpoint: mean survival time, dose: 400.0 mg/kg/injection, schedule: Q04DX002 (ip), vehicle: saline with Tween-80 89 % of control

O=C(CCCl)OCCCl
inactive: [5] 102 % of control | [6] 92 % of control

CSc1nc(=O)[nH]nc1Sc1ccccc1
inactive: [7] 102 % of control | endpoint: mean survival time, dose: 150.0 mg/kg/injection, schedule: Q01DX001 (ip), vehicle: saline 101 % of control

COc1cccc(NC(=O)NC2C(OC(C)=O)OC(COC(C)=O)C(OC(C)=O)C2OC(C)=O)c1 (centres undefined)
inactive: endpoint: mean survival time, dose: 12.5 mg/kg/injection, schedule: Q01DX009 (ip), vehicle: other 98 % of control | [1] 98 % of control | endpoint: mean survival time, dose: 50.0 mg/kg/injection, schedule: Q01DX009 (ip), vehicle: other 90 % of control | endpoint: mean survival time, dose: 100.0 mg/kg/injection, schedule: Q01DX009 (ip), vehicle: other 90 % of control | endpoint: mean survival time, dose: 200.0 mg/kg/injection, schedule: Q01DX009 (ip), vehicle: other 96 % of control

NC(C(=O)O)C(O)c1ccc2c(c1)OCO2 (centres undefined)
inactive: [5] 98 % of control | [6] 92 % of control | [8] 95 % of control

C=CC(=O)N1CCN(C(=O)C=C)c2cc(C)c(C)cc21
inactive: endpoint: mean survival time, dose: 25.0 mg/kg/injection, schedule: Q01DX009 (ip), vehicle: saline 101 % of control | endpoint: mean survival time, dose: 50.0 mg/kg/injection, schedule: Q01DX009 (ip), vehicle: saline 101 % of control | endpoint: mean survival time, dose: 100.0 mg/kg/injection, schedule: Q01DX009 (ip), vehicle: saline 100 % of control

CCC(=O)Oc1[nH]c(C)c(C(C)=O)c1C
inactive: [2] 100 % of control | [5] 102 % of control | [3] 97 % of control | [6] 97 % of control | [9] 100 % of control | [8] 94 % of control

COc1ccc2[nH]c3c(c2c1)CSc1ccccc1-3
inactive: endpoint: mean survival time, dose: 100.0 mg/kg/injection, schedule: Q04DX003 (ip), vehicle: acetone 94 % of control | endpoint: mean survival time, dose: 200.0 mg/kg/injection, schedule: Q04DX003 (ip), vehicle: acetone 105 % of control | endpoint: mean survival time, dose: 400.0 mg/kg/injection, schedule: Q04DX003 (ip), vehicle: acetone 100 % of control

CCOC(=O)c1cnc[nH]c1=O
inactive: [5] 104 % of control | [6] 104 % of control | [8] 96 % of control

O=Nc1c(-c2ccccc2)n(O)[n+]([O-])c1-c1ccccc1
inactive: [10] 89 % of control | [11] 89 % of control | [12] 97 % of control

CN(C)c1ccc(-c2nc3ccccc3s2)cc1
inactive: [10] 106 % of control | [11] 96 % of control | [12] 98 % of control

CCOC(=O)c1cc(C=O)nc2c(Cl)cc(Cl)cc12
inactive: [5] 96 % of control | [8] 98 % of control

O=C(O)[C@H](Cc1ccccc1)N1C(=O)c2ccccc2C1=O
inactive: endpoint: median survival time, dose: 75.0 mg/kg/injection, schedule: Q01DX005 (ip), vehicle: DMSO 96 % of control | endpoint: median survival time, dose: 150.0 mg/kg/injection, schedule: Q01DX005 (ip), vehicle: DMSO 93 % of control | endpoint: median survival time, dose: 300.0 mg/kg/injection, schedule: Q01DX005 (ip), vehicle: DMSO 96 % of control | endpoint: median survival time, dose: 600.0 mg/kg/injection, schedule: Q01DX005 (ip), vehicle: DMSO 98 % of control

CCOC(=O)C(O)c1ccccc1 (centres undefined)
inactive: [2] 101 % of control | [3] 96 % of control | [9] 93 % of control

CCOC1=C(C)C(=O)C1C (centres undefined)
inactive: [13] 100 % of control | [14] 94 % of control | [15] 100 % of control

N.N.N.N.O=C([O-])C([O-])C(O)C(=O)[O-].O=[N+]([O-])[O-].[Co+3] (centres undefined)
inactive: endpoint: mean survival time, dose: 25.0 mg/kg/injection, schedule: Q04DX002 (ip), vehicle: saline with Tween-80 104 % of control | endpoint: mean survival time, dose: 50.0 mg/kg/injection, schedule: Q04DX002 (ip), vehicle: saline with Tween-80 110 % of control | [4] 110 % of control

[Cl][Co]([Cl])[Cl].[NH-]CCCN.[NH-]CCC[NH-]
inactive: [11] 113 % of control | [13] 101 % of control | [12] 113 % of control | [14] 104 % of control | endpoint: mean survival time, dose: 400.0 mg/kg/injection, schedule: Q01DX009 (ip), vehicle: Klucel (hydroxypropylcellulose) (HPC) 104 % of control | [15] 104 % of control

Cc1ccc(NC(=O)Nc2ccccc2C(N)=O)cc1C
inactive: endpoint: mean survival time, dose: 12.5 mg/kg/injection, schedule: Q01DX009 (ip), vehicle: saline with Tween-80 95 % of control | endpoint: mean survival time, dose: 25.0 mg/kg/injection, schedule: Q01DX009 (ip), vehicle: saline with Tween-80 102 % of control | endpoint: mean survival time, dose: 50.0 mg/kg/injection, schedule: Q01DX009 (ip), vehicle: saline with Tween-80 95 % of control | [2] 92 % of control | [3] 92 % of control

Cc1cccc(S(=O)(=O)N(C)C)c1
inactive: [2] 95 % of control | [5] 94 % of control | [3] 95 % of control | [6] 92 % of control | [9] 92 % of control | [8] 96 % of control

[Cl][Pt+2][Cl].[NH-]c1cc2ccccc2cc1[NH-]
inactive: endpoint: mean survival time, dose: 2.5 mg/kg/injection, schedule: Q01DX009 (ip), vehicle: saline with Tween-80 102 % of control | endpoint: mean survival time, dose: 5.0 mg/kg/injection, schedule: Q01DX009 (ip), vehicle: saline with Tween-80 109 % of control | endpoint: mean survival time, dose: 10.0 mg/kg/injection, schedule: Q01DX009 (ip), vehicle: saline with Tween-80 109 % of control | endpoint: mean survival time, dose: 20.0 mg/kg/injection, schedule: Q01DX009 (ip), vehicle: saline with Tween-80 100 % of control and 112 % of control | endpoint: mean survival time, dose: 40.0 mg/kg/injection, schedule: Q01DX009 (ip), vehicle: saline with Tween-80 105 % of control and 111 % of control | endpoint: mean survival time, dose: 80.0 mg/kg/injection, schedule: Q01DX009 (ip), vehicle: saline with Tween-80 105 % of control | endpoint: mean survival time, dose: 160.0 mg/kg/injection, schedule: Q01DX009 (ip), vehicle: saline with Tween-80 106 % of control | endpoint: mean survival time, dose: 320.0 mg/kg/injection, schedule: Q01DX009 (ip), vehicle: saline with Tween-80 111 % of control

C=CCC1CN(CCC(O)c2ccc(F)cc2)CCC1(OC(=O)CC)c1ccccc1 (centres undefined)
inactive: endpoint: mean survival time, dose: 100.0 mg/kg/injection, schedule: Q04DX002 (ip), vehicle: Klucel (hydroxypropylcellulose) (HPC) 93 % of control | endpoint: mean survival time, dose: 200.0 mg/kg/injection, schedule: Q04DX002 (ip), vehicle: Klucel (hydroxypropylcellulose) (HPC) 101 % of control | endpoint: mean survival time, dose: 400.0 mg/kg/injection, schedule: Q04DX002 (ip), vehicle: Klucel (hydroxypropylcellulose) (HPC) 104 % of control

NCC1CCCC1N (centres undefined)
inactive: endpoint: mean survival time, dose: 18.8 mg/kg/injection, schedule: Q01DX001 (ip), vehicle: saline 114 % of control | endpoint: mean survival time, dose: 18.8 mg/kg/injection, schedule: Q04DX003 (ip), vehicle: saline 101 % of control | endpoint: mean survival time, dose: 37.5 mg/kg/injection, schedule: Q01DX001 (ip), vehicle: saline 108 % of control | endpoint: mean survival time, dose: 37.5 mg/kg/injection, schedule: Q04DX003 (ip), vehicle: saline 101 % of control | [7] 103 % of control | endpoint: mean survival time, dose: 75.0 mg/kg/injection, schedule: Q04DX003 (ip), vehicle: saline 104 % of control

O=C(Cc1ccccc1)c1ccccc1
inactive: endpoint: mean survival time, dose: 100.0 mg/kg/injection, schedule: Q01DX001 (ip), vehicle: saline with Tween-80 102 % of control | endpoint: mean survival time, dose: 200.0 mg/kg/injection, schedule: Q01DX001 (ip), vehicle: saline with Tween-80 102 % of control | endpoint: mean survival time, dose: 400.0 mg/kg/injection, schedule: Q01DX001 (ip), vehicle: saline with Tween-80 94 % of control
